# Active and inactive are the calls of the source.
# Key:
# [1] = biological target: Cytochrome P450 2C9 (Homo sapiens, UniProt P11712)
# [2] = biological target: T1, Cytochrome P450 1A2 (Homo sapiens, UniProt P05177);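 also: PubChem cytochrome P450 panel assay, CYP1A2 panel member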
# T1 sequence (P05177 whole entry): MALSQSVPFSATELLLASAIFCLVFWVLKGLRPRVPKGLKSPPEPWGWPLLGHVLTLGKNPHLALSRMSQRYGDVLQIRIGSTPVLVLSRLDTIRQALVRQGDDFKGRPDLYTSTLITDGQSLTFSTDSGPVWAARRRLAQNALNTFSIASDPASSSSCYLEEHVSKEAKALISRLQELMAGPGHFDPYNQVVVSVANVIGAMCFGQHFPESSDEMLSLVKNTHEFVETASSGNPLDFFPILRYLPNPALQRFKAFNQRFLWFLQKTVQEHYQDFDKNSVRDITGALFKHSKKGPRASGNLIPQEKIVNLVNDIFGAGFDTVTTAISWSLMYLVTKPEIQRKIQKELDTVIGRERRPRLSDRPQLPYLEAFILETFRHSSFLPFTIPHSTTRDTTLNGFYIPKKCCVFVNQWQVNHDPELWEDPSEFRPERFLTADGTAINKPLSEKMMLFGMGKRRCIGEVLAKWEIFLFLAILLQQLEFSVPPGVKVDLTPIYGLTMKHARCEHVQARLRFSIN
# [3] = biological target: T2, Calpain-2 catalytic subunit (Sus scrofa, UniProt P43367); experiment: m-calpain protease blockers, concentration series – biochemical, fluorogenic peptide substrate, dose response (AID 1420); format: functional
# T2 sequence (P43367 whole entry): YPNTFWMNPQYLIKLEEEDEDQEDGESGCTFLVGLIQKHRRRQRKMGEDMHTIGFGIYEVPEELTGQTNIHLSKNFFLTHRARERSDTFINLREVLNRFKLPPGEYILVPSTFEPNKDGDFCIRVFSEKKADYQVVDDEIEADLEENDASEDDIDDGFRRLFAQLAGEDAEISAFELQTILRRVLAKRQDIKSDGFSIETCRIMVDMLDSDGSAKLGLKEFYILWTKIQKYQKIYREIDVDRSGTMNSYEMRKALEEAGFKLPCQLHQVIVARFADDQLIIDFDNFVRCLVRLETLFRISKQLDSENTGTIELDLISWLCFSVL
# [4] = viability of HCT116 lacking mutant beta-catenin – cell-based, human colon tumor, dose response (AID 1045); format: functional;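 also: HCT116 colon tumor cells with beta catenin knocked out; cells exposed to compound for 60 hours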
# [5] = viability of PTEN-deleted HCT116 cells – cell-based, HCT116 PTEN knockout, dose response (AID 1047); format: functional;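 also: HCT116 colon tumor cells with PTEN knocked out; cells exposed to compound for 60 hours before readout; potency for loss of cell viability measured by luminescence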
# [6] = biological target: FAD-linked sulfhydryl oxidase ALR (Homo sapiens, UniProt P55789); experiment: ALR-catalysed DTT oxidation blockers – biochemical, H2O2 detection, luminescence, cherry-pick, dose response (AID 493248)
# Sequence of FAD-linked sulfhydryl oxidase ALR (P55789 whole entry): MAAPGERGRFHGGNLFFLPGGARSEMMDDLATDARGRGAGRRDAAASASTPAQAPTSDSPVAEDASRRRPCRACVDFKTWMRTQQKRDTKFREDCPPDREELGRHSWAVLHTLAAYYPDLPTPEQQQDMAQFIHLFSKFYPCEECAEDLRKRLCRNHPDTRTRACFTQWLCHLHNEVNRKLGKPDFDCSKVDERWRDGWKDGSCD
# [7] = Luminescence Cell-Based Dose Response HTS to Identify Inhibitors of 5'UTR Stem-Loop Driven Prion Protein mRNA Translation in H4 Neuroglioblastoma Cells. [Related pubchem assays: 1827 (Project Summary), 1813 (Primary HTS)]; format: functional
# [8] = luciferase reporter signal suppression in cells – H4 neuroglioma cells, luminescence, dose response (AID 1990); format: functional, cell-based
# [9] = alpha-synuclein stem-loop luciferase translation blockers – H4 neuroglioma cells, luminescence, confirmation (AID 1988); format: functional, cell-based
# [10] = biological target: T3, Mannose-6-phosphate isomerase (Homo sapiens, UniProt P34949); experiment: MPI inhibition at elevated mannose 6-phosphate – biochemical, fluorescence intensity, high mannose 6-phosphate, primary screen (AID 1220)
# T3 sequence (P34949 whole entry): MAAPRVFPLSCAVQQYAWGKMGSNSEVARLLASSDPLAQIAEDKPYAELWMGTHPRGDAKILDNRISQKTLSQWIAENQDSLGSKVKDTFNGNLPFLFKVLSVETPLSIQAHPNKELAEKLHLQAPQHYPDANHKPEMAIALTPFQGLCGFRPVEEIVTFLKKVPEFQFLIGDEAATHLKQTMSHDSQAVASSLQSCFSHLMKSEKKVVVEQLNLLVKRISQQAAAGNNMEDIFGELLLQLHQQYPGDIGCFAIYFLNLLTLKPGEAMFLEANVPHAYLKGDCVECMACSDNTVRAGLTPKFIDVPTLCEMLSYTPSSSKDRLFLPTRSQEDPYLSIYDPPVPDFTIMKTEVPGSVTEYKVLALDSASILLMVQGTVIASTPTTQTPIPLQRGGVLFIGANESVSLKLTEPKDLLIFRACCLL
# [11] = biological target: T4, Rac GTPase-activating protein 1 (Homo sapiens, UniProt Q9H0H5); experiment: blockers of MgcRacGAP-driven Rac1 GTP hydrolysis – biochemical, ADP Hunter fluorescence, primary and confirmatory, confirmation (AID 624330); format: functional
# T4 sequence (Q9H0H5 whole entry): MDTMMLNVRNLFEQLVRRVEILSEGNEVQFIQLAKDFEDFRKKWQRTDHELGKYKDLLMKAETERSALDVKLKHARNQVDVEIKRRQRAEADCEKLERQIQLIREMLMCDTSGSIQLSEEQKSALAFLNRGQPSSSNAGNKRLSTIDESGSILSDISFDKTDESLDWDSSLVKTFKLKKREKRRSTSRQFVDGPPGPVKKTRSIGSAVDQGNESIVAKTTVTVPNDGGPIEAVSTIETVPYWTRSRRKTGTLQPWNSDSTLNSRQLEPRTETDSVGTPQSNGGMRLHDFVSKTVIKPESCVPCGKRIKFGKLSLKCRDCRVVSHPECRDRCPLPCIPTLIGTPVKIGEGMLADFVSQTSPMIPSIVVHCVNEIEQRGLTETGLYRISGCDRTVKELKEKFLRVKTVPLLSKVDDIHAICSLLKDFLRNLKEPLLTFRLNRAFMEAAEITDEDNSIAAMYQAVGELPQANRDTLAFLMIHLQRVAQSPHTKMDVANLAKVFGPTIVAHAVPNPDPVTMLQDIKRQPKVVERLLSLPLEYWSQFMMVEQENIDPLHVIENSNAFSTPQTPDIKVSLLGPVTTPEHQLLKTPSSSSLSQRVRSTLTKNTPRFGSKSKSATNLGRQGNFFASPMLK
# [12] = biological target: Luciferin 4-monooxygenase (Photinus pyralis, UniProt P08659); experiment: inhibition of purified Photinus pyralis luciferase – biochemical, luminescence, dose response (AID 1891)
# Sequence of Luciferin 4-monooxygenase (P08659 whole entry): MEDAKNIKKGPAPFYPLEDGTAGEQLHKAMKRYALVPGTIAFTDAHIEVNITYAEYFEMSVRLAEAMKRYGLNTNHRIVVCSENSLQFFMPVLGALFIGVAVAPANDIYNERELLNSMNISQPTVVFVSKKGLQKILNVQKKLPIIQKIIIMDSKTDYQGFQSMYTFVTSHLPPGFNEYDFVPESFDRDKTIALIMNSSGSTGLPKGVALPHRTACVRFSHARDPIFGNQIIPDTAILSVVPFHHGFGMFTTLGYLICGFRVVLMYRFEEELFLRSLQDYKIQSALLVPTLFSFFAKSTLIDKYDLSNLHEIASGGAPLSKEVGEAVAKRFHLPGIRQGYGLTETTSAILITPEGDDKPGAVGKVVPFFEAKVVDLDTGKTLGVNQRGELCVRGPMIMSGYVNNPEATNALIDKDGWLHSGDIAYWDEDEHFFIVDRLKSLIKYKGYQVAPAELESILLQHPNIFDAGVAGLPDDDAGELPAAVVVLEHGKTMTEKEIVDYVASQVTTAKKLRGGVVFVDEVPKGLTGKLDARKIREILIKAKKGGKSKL
# [13] = Luminescence Cell-Based Dose Confirmation HTS to Identify Inhibitors of Platelet Dense Granule Release. [Related pubchem assays: 1663 (Primary HTS), 1678 (Summary of Project)]; format: functional
# [14] = biological target: Cytochrome P450 2C19 (Homo sapiens, UniProt P33261); experiment: Cytochrome panel assay with activity outcomes. Panel member name: p450-cyp2c19 Compounds with AC50 equal or less than 10 uM are considered active; format: functional; conditions: read-out: AC50
# Sequence of Cytochrome P450 2C19 (P33261 whole entry): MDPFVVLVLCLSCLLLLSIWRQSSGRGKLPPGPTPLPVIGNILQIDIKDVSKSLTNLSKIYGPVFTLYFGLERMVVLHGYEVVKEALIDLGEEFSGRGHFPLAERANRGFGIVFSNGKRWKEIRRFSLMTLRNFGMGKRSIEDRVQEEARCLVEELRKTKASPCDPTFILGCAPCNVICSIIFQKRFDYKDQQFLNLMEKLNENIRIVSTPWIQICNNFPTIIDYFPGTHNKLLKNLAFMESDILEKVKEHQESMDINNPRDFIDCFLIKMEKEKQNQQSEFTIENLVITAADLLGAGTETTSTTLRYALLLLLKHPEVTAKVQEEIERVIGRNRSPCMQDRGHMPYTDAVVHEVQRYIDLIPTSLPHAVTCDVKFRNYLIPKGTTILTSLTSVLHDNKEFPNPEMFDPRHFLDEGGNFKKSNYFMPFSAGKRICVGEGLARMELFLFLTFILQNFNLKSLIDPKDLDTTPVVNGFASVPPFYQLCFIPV
# [15] = biological target: Cytochrome P450 2D6 (Homo sapiens, UniProt P10635);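 also: CYP2D6 member of a cytochrome P450 panel assay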
# Sequence of Cytochrome P450 2D6 (P10635 whole entry): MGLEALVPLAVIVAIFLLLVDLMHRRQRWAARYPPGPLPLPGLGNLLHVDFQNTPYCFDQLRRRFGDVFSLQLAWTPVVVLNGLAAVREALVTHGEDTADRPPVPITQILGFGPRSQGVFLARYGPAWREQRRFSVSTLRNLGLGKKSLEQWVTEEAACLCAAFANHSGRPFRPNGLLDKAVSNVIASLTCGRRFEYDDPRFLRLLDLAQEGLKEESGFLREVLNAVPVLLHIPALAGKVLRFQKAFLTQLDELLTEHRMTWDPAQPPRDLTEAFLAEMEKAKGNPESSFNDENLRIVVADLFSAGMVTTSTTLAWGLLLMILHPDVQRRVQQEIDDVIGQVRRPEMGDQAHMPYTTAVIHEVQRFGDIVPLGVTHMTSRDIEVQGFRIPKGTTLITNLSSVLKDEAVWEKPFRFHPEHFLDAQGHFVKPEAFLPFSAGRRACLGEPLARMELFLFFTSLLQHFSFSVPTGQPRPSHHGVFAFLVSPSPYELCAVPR
# [16] = biological target: Paired box protein Pax-8 (Homo sapiens, UniProt Q06710); experiment: PAX8 transcriptional activity inhibition in RMG-I – RMG-I cells, luciferase, cherry-pick, dose response (AID 687027); format: functional, cell-based;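 also: luciferase reporter driven by Pax8 target thyroperoxidase promoter measured by SteadyGlo luminescence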
# Sequence of Paired box protein Pax-8 (Q06710 whole entry): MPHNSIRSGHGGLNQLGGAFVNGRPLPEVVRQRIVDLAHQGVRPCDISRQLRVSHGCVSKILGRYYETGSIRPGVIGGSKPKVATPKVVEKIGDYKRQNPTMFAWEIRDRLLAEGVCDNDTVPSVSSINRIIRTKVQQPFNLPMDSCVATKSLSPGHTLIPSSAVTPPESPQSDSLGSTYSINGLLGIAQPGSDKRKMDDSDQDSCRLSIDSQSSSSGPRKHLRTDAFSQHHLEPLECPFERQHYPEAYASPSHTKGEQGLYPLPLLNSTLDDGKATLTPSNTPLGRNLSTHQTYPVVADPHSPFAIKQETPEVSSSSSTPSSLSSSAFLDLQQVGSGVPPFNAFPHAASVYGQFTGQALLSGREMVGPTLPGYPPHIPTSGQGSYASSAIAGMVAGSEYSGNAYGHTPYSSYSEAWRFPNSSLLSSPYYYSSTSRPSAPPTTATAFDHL
# [17] = biological target: T5, Corticotropin-releasing factor receptor 2/Corticotropin-releasing factor-binding protein (Homo sapiens, UniProt P24387+Q13324); experiment: activators of CRF receptor 2 with binding protein – uHTS hits, confirmation (AID 602473); format: functional; conditions: read-out: EC50_Mean
# T5 sequence (Q13324 whole entry): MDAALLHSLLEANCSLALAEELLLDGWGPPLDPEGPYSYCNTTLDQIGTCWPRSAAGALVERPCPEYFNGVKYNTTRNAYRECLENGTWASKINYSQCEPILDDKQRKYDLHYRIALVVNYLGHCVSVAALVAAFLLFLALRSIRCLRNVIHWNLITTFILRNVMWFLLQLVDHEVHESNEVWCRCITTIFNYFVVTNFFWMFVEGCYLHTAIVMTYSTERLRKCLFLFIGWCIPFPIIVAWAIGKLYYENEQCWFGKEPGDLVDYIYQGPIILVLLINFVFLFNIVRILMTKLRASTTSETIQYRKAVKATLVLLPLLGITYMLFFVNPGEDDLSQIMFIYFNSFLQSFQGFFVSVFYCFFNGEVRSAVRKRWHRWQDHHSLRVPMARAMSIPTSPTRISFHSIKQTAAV
# T5 sequence (P24387 whole entry): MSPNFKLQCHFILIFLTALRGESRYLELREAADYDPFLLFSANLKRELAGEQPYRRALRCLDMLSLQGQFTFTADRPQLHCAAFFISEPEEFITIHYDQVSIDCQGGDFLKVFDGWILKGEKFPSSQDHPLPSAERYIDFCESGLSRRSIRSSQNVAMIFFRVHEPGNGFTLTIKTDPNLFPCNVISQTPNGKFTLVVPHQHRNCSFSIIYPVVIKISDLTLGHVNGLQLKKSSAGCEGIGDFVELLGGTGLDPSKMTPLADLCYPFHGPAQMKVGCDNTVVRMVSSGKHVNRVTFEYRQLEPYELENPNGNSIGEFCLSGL
# [18] = biological target: T5, Corticotropin-releasing factor receptor 2/Corticotropin-releasing factor-binding protein; experiment: Dose Response confirmation of uHTS hits for small molecule antagonists of the CRF-binding protein and CRF-R2 receptor complex.; format: functional; conditions: read-out: IC50_Mean
# [19] = HEK-293T viability loss after treatment – luminescence, T-cell screen hits, cytotoxicity control for TCR NF-kB inhibitor project, dose response (AID 489026); format: functional, cell-based;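 also: cells exposed to compound about 14 hours before the viability readout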
# [20] = system: INS1; experiment: INS-1E survival protection against cytokine death – cell-based, luminescence, retest, dose response (AID 449756); format: functional; conditions: Rattus norvegicus, INS1;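 also: cell death triggered by IL-1 beta plus TNF-alpha plus IFN-gamma mixture; protective hits raise ATP signal compared with cytokine alone wells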
# [21] = biological target: Cytochrome P450 3A4 (Homo sapiens, UniProt P08684);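 also: CYP3A4 tested as one member of a cytochrome P450 panel screen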
# Sequence of Cytochrome P450 3A4 (P08684 whole entry): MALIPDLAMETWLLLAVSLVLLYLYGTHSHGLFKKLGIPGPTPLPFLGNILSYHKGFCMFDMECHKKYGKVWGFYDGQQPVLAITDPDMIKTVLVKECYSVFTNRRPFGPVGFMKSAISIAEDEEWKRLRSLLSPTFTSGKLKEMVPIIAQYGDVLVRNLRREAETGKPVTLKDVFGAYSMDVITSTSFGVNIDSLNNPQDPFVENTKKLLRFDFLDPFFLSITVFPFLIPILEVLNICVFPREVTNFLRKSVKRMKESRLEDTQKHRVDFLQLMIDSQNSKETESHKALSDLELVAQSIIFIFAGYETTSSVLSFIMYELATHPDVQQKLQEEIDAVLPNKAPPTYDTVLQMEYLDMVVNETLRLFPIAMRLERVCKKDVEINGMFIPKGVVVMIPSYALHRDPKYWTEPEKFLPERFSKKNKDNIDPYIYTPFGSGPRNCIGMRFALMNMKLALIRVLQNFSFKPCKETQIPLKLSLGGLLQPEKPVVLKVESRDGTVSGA
# Sequence of Cytochrome P450 2C9 (P11712 whole entry): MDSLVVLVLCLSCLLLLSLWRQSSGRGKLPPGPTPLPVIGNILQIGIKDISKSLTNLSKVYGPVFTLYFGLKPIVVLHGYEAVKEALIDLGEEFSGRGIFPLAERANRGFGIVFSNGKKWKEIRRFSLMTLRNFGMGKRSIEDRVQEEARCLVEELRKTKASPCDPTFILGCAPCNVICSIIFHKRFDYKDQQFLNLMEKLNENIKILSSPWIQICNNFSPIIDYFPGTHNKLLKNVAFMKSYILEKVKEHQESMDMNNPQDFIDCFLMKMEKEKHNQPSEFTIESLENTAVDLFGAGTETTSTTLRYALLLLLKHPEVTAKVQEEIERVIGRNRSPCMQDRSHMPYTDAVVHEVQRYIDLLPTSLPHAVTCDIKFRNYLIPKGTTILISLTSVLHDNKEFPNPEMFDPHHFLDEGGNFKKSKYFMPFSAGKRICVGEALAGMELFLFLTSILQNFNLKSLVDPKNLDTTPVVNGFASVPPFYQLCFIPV
structure (smiles),measurement,setting,value
CNc1nc(C)cc(C)c1S(=O)(=O)c1ccc(Cl)cc1,AC50,[1],inconclusive
same,AC50,[2],28.2 µM (inconclusive)
CCSc1nnc(NC(=O)c2cccs2)s1,IC50,[3],15 µM (not active)
COC(=O)CNC(=O)c1sc2ncn(CC(=O)Nc3ccc(C)c(Cl)c3)c(=O)c2c1C,IC50,[3],1.82 µM (not active)
CCN1CCN(c2cc(C)c3cc(NC(=O)c4cncc(Br)c4)ccc3n2)CC1,EC50,[4],13.9 µM (active)
same,EC50,[5],16.2 µM (active)
CC(=O)N1CCN(S(=O)(=O)c2cccc(C(=O)Nc3ccccc3N3CCCC3)c2)CC1,AC50,[6],3.27 µM (active)
CCOC(=O)N1CCN(C(=O)c2ccc(NS(C)(=O)=O)cc2)CC1,IC50,[3],> 50 µM (not active)
O=C(COc1ccc(F)cc1)NN1C(=O)CSC1=S,IC50,[3],1.42 µM (not active)
CCOc1cc(/C=N/n2cnnc2)ccc1OS(=O)(=O)c1ccccc1,IC50,[3],> 50 µM (not active)
Cc1[nH]c2ccc(-c3nnc(S)n3C)cc2c1C,AC50,[6],0.664 µM (active)
same,EC50,[7],19.2 µM (active)
same,EC50,[8],8.15 µM (active)
same,EC50,[9],14 µM (active)
Cc1ccc(NCCC(=O)c2cccc([N+](=O)[O-])c2)c(C)c1,IC50,[10],> 50 µM (not active)
CCOc1cc(CNc2ccc3[nH]c(O)nc3c2)ccc1OCC(=O)NC(C)(C)C,IC50,[11],60.2 µM (active)
same,EC50,[12],> 112 µM (not active)
same,EC50,[13],12 µM (active)
same,IC50,[10],> 50 µM (not active)
CCN(CC)c1ccc(/C=N/Nc2nc(C)cc(O)n2)cc1,AC50,[6],0.456 µM (active)
same,AC50,[1],inconclusive
same,AC50,[14],22.4 µM (inconclusive)
same,AC50,[15],12.6 µM (inconclusive)
same,AC50,[2],25.1 µM (inconclusive)
COc1ccccc1-c1cc(NCc2ccccc2)ncn1,AC50,[1],inconclusive
C[S+]([O-])c1ccccc1-c1nc(-c2cccc(Cl)c2)no1 (centres undefined),IC50,[3],> 50 µM (not active)
CCCCC(=O)N/N=C(\C)CC(=O)Nc1cc(Cl)ccc1OC,AC50,[1],inconclusive
same,AC50,[2],12.6 µM (inconclusive)
CN(N=Nc1[nH]cnc1C(N)=O)C1CCCCC1,AC50,[16],6.78 µM (active)
COc1ccc2c(c1)-c1nc(/N=C/c3ccc(O)cc3)sc1CC2,EC50,[17],> 53 µM (inactive)
same,IC50,[18],> 47.1 µM (inactive)
same,IC50,[10],> 50 µM (not active)
NNC(=O)Cc1cccnc1,AC50,[1],inconclusive
same,AC50,[2],0.631 µM (inconclusive)
CCSc1nnc(NC(=O)c2cccc(S(=O)(=O)N(C)c3ccc(C)cc3)c2)s1,AC50,[6],1.12 µM (active)
CCCCOc1ccc(C(=O)OC(C)CN(C)C)cc1 (centres undefined),IC50,[3],> 50 µM (not active)
CCc1ccc(N2C(=O)C(Cl)=C(Nc3ccc(C(=O)N4CCCC4)cc3)C2=O)cc1,IC50,[19],> 80 µM (inactive)
COc1ccc(C(=O)N2CCN(c3ccc([N+](=O)[O-])c(NCCc4ccc(OC)c(OC)c4)c3)CC2)cc1,IC50,[19],> 80 µM (inactive)
same,AC50,[20],2.53 µM (active)
Cc1cc(C)cc(C(=N)c2ccccc2Cc2cccc3ccccc23)c1,AC50,[1],inconclusive
same,AC50,[21],2.51 µM (inconclusive)
CC(C)Nc1ccc(C(CC(N)=O)NC(=O)Cc2ccc(Br)cc2)cc1[N+](=O)[O-] (centres undefined),IC50,[19],> 80 µM (inactive)
COc1ccc(N2C(=O)CSC2c2ccccc2)cc1 (centres undefined),AC50,[6],1.9 µM (active)
COc1cc(Cn2c(-c3nonc3N)nc3ccccc32)ccc1C,EC50,[7],10.3 µM (active)
same,IC50,[19],> 80 µM (inactive)
same,EC50,[8],9.66 µM (inconclusive)
same,EC50,[9],7.81 µM (active)
CN(C(=S)Nc1ccc(Oc2ccccc2)cc1)c1ccc(O)cc1,IC50,[10],> 50 µM (not active)
Cc1ccc(C)c2sc(NC(=O)c3ccc(N4CCCCC4)c([N+](=O)[O-])c3)nc12,AC50,[1],inconclusive
same,AC50,[21],3.98 µM (inconclusive)
Oc1ccc(N2CCN(c3nnnn3-c3ccccc3)CC2)cc1,AC50,[6],1.9 µM (active)
Cc1cccc(C(=O)ON=C(N)c2cccc([N+](=O)[O-])c2)c1,AC50,[1],inconclusive
same,AC50,[14],7.08 µM (inconclusive)
same,AC50,[21],17.8 µM (inconclusive)

# — ChEMBL document CHEMBL1201862, “PubChem BioAssay data set” (2004)
